The supplement of paper PMC5908809

Key:
[1] = system: normal NK cells expanded with K562-aAPC; assay: percent inhibition of viability; higher = more inhibition; details: 72 h, IL-2 2.5 ng/mL
Description: (§1)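 Drug sensitivity and resistance testing on K562-aAPC-expanded normal NK cells: 5 concentrations (10-fold steps over a 10,000-fold range), 72 h at 37 °C, viability by CellTiter-Glo normalised to DMSO and benzethonium chloride controls; DSS from the fitted curve.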

DERL-7 (IL-2 2.5 ng/mL) [2] = assay: as above; details: 72 h
IMC-1 (IL-2 20 ng/mL) [3] = assay: as above; details: 72 h
KAI3 (IL-2 2.5 ng/mL) [4] = assay: as above; details: 72 h
KHYG-1 (IL-2 2.5 ng/mL) [5] = assay: as above; details: 72 h
NK-92 (IL-2 2.5 ng/mL) [6] = assay: as above; details: 72 h
NK-YS (IL-2 2.5 ng/mL) [7] = assay: as above; details: 72 h
NKL (IL-2 2.5 ng/mL) [8] = assay: as above; details: 72 h
SNK-6 (IL-2 2.5 ng/mL) [9] = assay: as above; details: 72 h
YT (IL-2 2.5 ng/mL) [10] = assay: as above; details: 72 h
[11] = system: normal primary NK cells, pool 1 (3 donors) (IL-2 2.5 ng/mL); assay: as above; details: 72 h
[12] = system: normal primary NK cells, pool 1 (3 donors), resting (IL-2 0 ng/mL); assay: as above; details: 72 h
[13] = system: normal primary NK cells, pool 2 (3 donors) (IL-2 2.5 ng/mL); assay: as above; details: 72 h
[14] = system: normal primary NK cells, pool 3 (3 donors) (IL-2 2.5 ng/mL); assay: as above; details: 72 h
[15] = system: normal NK cells expanded with K562-aAPC; assay: drug sensitivity score (DSS) (DSS units); higher = more sensitive; extreme values may be limits of the assay; details: 72 h; IL-2 2.5 ng/mL
Description: as §1

DERL-7 (IL-2 2.5 ng/mL) [16] = assay: as above; details: 72 h
IMC-1 (IL-2 20 ng/mL) [17] = assay: as above; details: 72 h
KAI3 (IL-2 2.5 ng/mL) [18] = assay: as above; details: 72 h
KHYG-1 (IL-2 2.5 ng/mL) [19] = assay: as above; details: 72 h
NK-92 (IL-2 2.5 ng/mL) [20] = assay: as above; details: 72 h
NK-YS (IL-2 2.5 ng/mL) [21] = assay: as above; details: 72 h
NKL (IL-2 2.5 ng/mL) [22] = assay: as above; details: 72 h
SNK-6 (IL-2 2.5 ng/mL) [23] = assay: as above; details: 72 h
YT (IL-2 2.5 ng/mL) [24] = assay: as above; details: 72 h
[25] = system: normal primary NK cells, pool 1 (3 donors) (IL-2 2.5 ng/mL); assay: as above; details: 72 h
[26] = system: normal primary NK cells, pool 1 (3 donors), resting (IL-2 0 ng/mL); assay: as above; details: 72 h
[27] = system: normal primary NK cells, pool 2 (3 donors) (IL-2 2.5 ng/mL); assay: as above; details: 72 h
[28] = system: normal primary NK cells, pool 3 (3 donors) (IL-2 2.5 ng/mL); assay: as above; details: 72 h

COc1cc(F)c(F)c(Nc2ccc(I)cc2F)c1NS(=O)(=O)C1(C[C@H](O)CO)CC1 [Refametinib] (max concentration tested 10000 nM)
percent inhibition of viability [%]
Details	1 nM	10 nM	100 nM	1000 nM	10000 nM
DERL-7 (IL-2 2.5 ng/mL) [2]	6.17	13	30.2	53.8	78
IMC-1 (IL-2 20 ng/mL) [3]	-4.32	-6.37	-1.56	6.1	35.3
KAI3 (IL-2 2.5 ng/mL) [4]	-4.59	6.78	18.3	26.5	39.6
KHYG-1 (IL-2 2.5 ng/mL) [5]	-5.12	4.63	33.5	62.9	76.7
NK-92 (IL-2 2.5 ng/mL) [6]	-0.27	-1.5	-9.05	19.5	37.8
NK-YS (IL-2 2.5 ng/mL) [7]	-4.96	-5.01	5	14.1	31.5
NKL (IL-2 2.5 ng/mL) [8]	-2.52	16.4	39.5	74.4	82.3
SNK-6 (IL-2 2.5 ng/mL) [9]	2.1	-35.6	-25	-46.3	-9.38
YT (IL-2 2.5 ng/mL) [10]	1.91	1.53	7.51	17.5	44.4
[1]	-5.33	-11.3	-6.84	4.3	23.1
[11]	-10.8	15.4	14	11.4	29.1
[12]	0.56	9.23	10.7	12.4	49.4
[13]	0	6.56	8.63	16.2	40.9
[14]	-4.86	5.75	-0.36	3.44	28.4

Details	drug sensitivity score
DERL-7 (IL-2 2.5 ng/mL) [16]	14.7
IMC-1 (IL-2 20 ng/mL) [17]	2.67
KAI3 (IL-2 2.5 ng/mL) [18]	6.75
KHYG-1 (IL-2 2.5 ng/mL) [19]	16
NK-92 (IL-2 2.5 ng/mL) [20]	4.28
NK-YS (IL-2 2.5 ng/mL) [21]	2.69
NKL (IL-2 2.5 ng/mL) [22]	19.1
SNK-6 (IL-2 2.5 ng/mL) [23]	0
YT (IL-2 2.5 ng/mL) [24]	4.03
[15]	1.44
[25]	3.32
[26]	4.14
[27]	3.81
[28]	1.74

CN(C)c1cc2c(cc1Sc1nc3c(N)nccc3n1CCNCC(C)(C)C)OCO2 [CUDC-305] (max concentration tested 10000 nM)
percent inhibition of viability [%]
Details	1 nM	10 nM	100 nM	1000 nM	10000 nM
DERL-7 (IL-2 2.5 ng/mL) [2]	-1.72	-0.9	22.4	101	101
IMC-1 (IL-2 20 ng/mL) [3]	-5.61	-0.06	1.88	100	101
KAI3 (IL-2 2.5 ng/mL) [4]	-0.9	-0.19	41.5	108	108
KHYG-1 (IL-2 2.5 ng/mL) [5]	-1.89	-3.69	6.61	107	111
NK-92 (IL-2 2.5 ng/mL) [6]	-12	-2.97	13.8	103	107
NK-YS (IL-2 2.5 ng/mL) [7]	-4.26	-6.26	23.7	108	109
NKL (IL-2 2.5 ng/mL) [8]	-12.3	-13.6	3.23	97.1	95.2
SNK-6 (IL-2 2.5 ng/mL) [9]	-24.7	-25.3	-1.59	89.5	89.3
YT (IL-2 2.5 ng/mL) [10]	-8.17	-8.94	5.06	96.3	102
[1]	-9.36	-5.57	18.3	98.9	99.5
[11]	3.05	11.3	19.7	84.3	92.8
[12]	-0.67	17.6	27.6	43.1	69.2
[13]	-9.1	7.74	23	77.7	86.7
[14]	-11.7	2.98	12	77.3	88.5

Details	drug sensitivity score
DERL-7 (IL-2 2.5 ng/mL) [16]	21.5
IMC-1 (IL-2 20 ng/mL) [17]	18.2
KAI3 (IL-2 2.5 ng/mL) [18]	23.5
KHYG-1 (IL-2 2.5 ng/mL) [19]	19.4
NK-92 (IL-2 2.5 ng/mL) [20]	20.4
NK-YS (IL-2 2.5 ng/mL) [21]	21.7
NKL (IL-2 2.5 ng/mL) [22]	17.9
SNK-6 (IL-2 2.5 ng/mL) [23]	16
YT (IL-2 2.5 ng/mL) [24]	18.2
[15]	20.9
[25]	17.8
[26]	12.7
[27]	17
[28]	15.8

COc1cc(O)c2c(c1)/C=C/C[C@H](O)[C@H](O)C(=O)/C=C\C[C@H](C)OC2=O [(5Z)-7-Oxozeaenol] (max concentration tested 10000 nM)
percent inhibition of viability [%]
Details	1 nM	10 nM	100 nM	1000 nM	10000 nM
DERL-7 (IL-2 2.5 ng/mL) [2]	-5.8	2.14	10.7	66.3	101
IMC-1 (IL-2 20 ng/mL) [3]	-4.21	-3.28	-4.71	-7.11	48.9
KAI3 (IL-2 2.5 ng/mL) [4]	0.25	0.75	5.8	59	105
KHYG-1 (IL-2 2.5 ng/mL) [5]	0.21	-0.62	3.17	83.9	109
NK-92 (IL-2 2.5 ng/mL) [6]	-20.1	-30	-17.5	26.2	104
NK-YS (IL-2 2.5 ng/mL) [7]	-3.96	-2.39	8.28	41.9	105
NKL (IL-2 2.5 ng/mL) [8]	-8.24	17.5	38.5	80	110
SNK-6 (IL-2 2.5 ng/mL) [9]	-2.4	-7.72	-14.8	23.5	95
YT (IL-2 2.5 ng/mL) [10]	-2.81	-5.3	6.58	46.2	105
[1]	-4.98	-3.35	-1.51	18.7	94.8
[11]	-6.25	6.9	22.8	45.6	98.5
[12]	-25.1	10.7	9.8	54.5	92
[13]	-15.9	1.06	2.6	22.8	96.8
[14]	-13.2	9.87	4.11	13.6	98.2

Details	drug sensitivity score
DERL-7 (IL-2 2.5 ng/mL) [16]	14.1
IMC-1 (IL-2 20 ng/mL) [17]	2.11
KAI3 (IL-2 2.5 ng/mL) [18]	12.6
KHYG-1 (IL-2 2.5 ng/mL) [19]	15.6
NK-92 (IL-2 2.5 ng/mL) [20]	9.5
NK-YS (IL-2 2.5 ng/mL) [21]	11
NKL (IL-2 2.5 ng/mL) [22]	20.5
SNK-6 (IL-2 2.5 ng/mL) [23]	8.87
YT (IL-2 2.5 ng/mL) [24]	11.4
[15]	8.28
[25]	12.1
[26]	12
[27]	8.91
[28]	7.72
